This is an account of results in patent publication US20190343425A1, “TREATMENT OF A DISEASE OF THE GASTROINTESTINAL TRACT WITH A TNF INHIBITOR” (Progenity, Inc., priority 2016, published 2019).

The nature of this data set: Tacrolimus tissue pharmacokinetics, oral versus intra-cecal ingestible device delivery. It counts as in vivo, Yorkshire-Cross farm swine. Conditions: swine; intra-cecally (ingestible device) vs orally administered; FIG. 76. On the procedure:
No further randomization procedure was employed.
Animals in Group 1 received an ingestible device containing 0.8 mL of vehicle solution (80% alcohol, 20% HCO-60). Animals in Group 2 received orally […] liquid formulation of tacrolimus at 4 mg/0.8 mL per animal (Prograf: 5 mg/mL). Animals in Group 3 received intra-cecally an ingestible device containing tacrolimus at 1 mg in 0.8 mL per ingestible device. Animals in Group 4 received intra-cecally an ingestible device containing tacrolimus at 2 mg in 0.8 mL per ingestible device. Animals in Group 5 received intra-cecally an ingestible device containing tacrolimus at 4 mg in 0.8 mL per ingestible device. To control for potential confounding effects of the surgery, all groups fast on Day −11 at least 24 hr before being subjected to anesthesia followed by surgical placements of a cecal port by a veterinary surgeon at Day −10. […]
For tissue necropsy, small intestine fluid and cecal fluid were collected separately from all the animals into two separate square plastic bottles, and stored at −20° C. The length and diameter of the cecum and the colon was measured from one animal in each group and recorded for reference. […] All samples were weighed, and the tissue sample weights were recorded. […] Around 3 grams of the total punched sample were collected into a pre-weighed 15-mL conical tube, and the tissue weight was recorded. […]

Each structure is given as a SMILES string.

With `C=CC[C@@H]1/C=C(\C)C[C@H](C)C[C@H](OC)[C@H]2O[C@@](O)(C(=O)C(=O)N3CCCC[C@H]3C(=O)O[C@H](/C(C)=C/[C@@H]3CC[C@@H](O)[C@H](OC)C3)[C@H](C)[C@@H](O)CC1=O)[C@H](C)C[C@@H]2OC` [tacrolimus], the “mean concentration of tacrolimus in the cecum tissue and the proximate colon tissue” value was “higher”.
